Data: PMC3083445, “Mastering the Canonical Loop of Serine Protease Inhibitors: Enhancing Potency by Optimising the Internal Hydrogen Bond Network” (PLoS ONE, 2011)
Where two headings read alike, the source gives them in different places. Where a SMILES comes first, the peptide text is derived from it. Bridges are numbered along the chain shown (N, C = ends).

How the values were obtained:
[1] = target: T1, KLK14 (Homo sapiens, UniProt Q9P0G3); experiment: Amidolytic inhibition assay of KLK14 with pNA substrate; assay type: biochemical
T1 construct: polyhistidine (C); made in house; host or cells: Sf9 insect cells
T1 sequence (Q9P0G3 25-251): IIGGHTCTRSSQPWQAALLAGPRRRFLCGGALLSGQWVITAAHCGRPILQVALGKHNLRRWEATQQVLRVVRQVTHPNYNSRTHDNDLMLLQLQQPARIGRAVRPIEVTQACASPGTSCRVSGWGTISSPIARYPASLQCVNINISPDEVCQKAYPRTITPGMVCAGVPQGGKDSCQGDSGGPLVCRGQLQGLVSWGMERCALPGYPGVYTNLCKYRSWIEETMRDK
Protocol: (§1) Assays with thrombin and trypsin included 10 mM CaCl2. […] Proteolysis fragments were separated on 10% polyacrylamide gels.

[2] = target: T2, β-Trypsin (Bos taurus, UniProt P00760); experiment: Amidolytic inhibition assay of β-trypsin; assay type: biochemical, bovine
T2 construct: Bovine β-trypsin, bovine α-chymotrypsin and human thrombin were obtained from Sigma; purchased Sigma
T2 sequence (P00760 24-246): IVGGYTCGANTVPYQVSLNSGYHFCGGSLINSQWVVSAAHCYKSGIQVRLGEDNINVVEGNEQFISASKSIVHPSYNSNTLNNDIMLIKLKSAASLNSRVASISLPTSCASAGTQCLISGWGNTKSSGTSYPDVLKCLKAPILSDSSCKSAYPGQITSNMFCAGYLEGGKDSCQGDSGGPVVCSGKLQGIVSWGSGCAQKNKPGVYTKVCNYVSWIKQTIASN
Protocol: as §1

[3] = target: T3, Matriptase (Homo sapiens, UniProt Q9Y5Y6); experiment: Amidolytic inhibition assay of matriptase; assay type: biochemical
T3 construct: purchased R&D Systems
T3 sequence (Q9Y5Y6 615-855 limits assumed): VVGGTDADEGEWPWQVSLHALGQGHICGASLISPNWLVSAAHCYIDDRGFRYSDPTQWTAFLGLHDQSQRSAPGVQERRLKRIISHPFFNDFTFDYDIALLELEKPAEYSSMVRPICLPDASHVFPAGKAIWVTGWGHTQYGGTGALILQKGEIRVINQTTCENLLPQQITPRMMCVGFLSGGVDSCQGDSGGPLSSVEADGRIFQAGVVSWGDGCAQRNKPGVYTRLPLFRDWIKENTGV
Protocol: as §1

[4] = target: T4, Thrombin (Homo sapiens, UniProt P00734); experiment: Amidolytic inhibition assay of thrombin; assay type: biochemical
T4 construct: Bovine β-trypsin, bovine α-chymotrypsin and human thrombin were obtained from Sigma; purchased Sigma
Protocol: as §1

[5] = target: T5, α-chymotrypsin (Bos taurus, UniProt P00766); experiment: Amidolytic inhibition assay of α-chymotrypsin; assay type: biochemical, bovine
T5 construct: Bovine β-trypsin, bovine α-chymotrypsin and human thrombin were obtained from Sigma; purchased Sigma
Protocol: as §1

[6] = target: T6, KLK12 (Homo sapiens, UniProt Q9UKR0); experiment: Inhibition of fibrinogen proteolysis by KLK12 (SDS-PAGE); assay type: biochemical; conditions: up to 10,000 nM inhibitor; 7 µM fibrinogen, 180 min
T6 construct: purchased R&D Systems
T6 sequence (Q9UKR0 18-248): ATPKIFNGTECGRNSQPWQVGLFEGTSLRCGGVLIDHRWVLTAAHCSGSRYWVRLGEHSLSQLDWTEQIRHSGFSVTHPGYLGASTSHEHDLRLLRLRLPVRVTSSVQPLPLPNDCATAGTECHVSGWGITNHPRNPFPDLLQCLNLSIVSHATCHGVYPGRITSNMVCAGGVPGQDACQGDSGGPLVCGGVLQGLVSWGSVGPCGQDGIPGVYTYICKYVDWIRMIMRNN
Protocol: as §1

[7] = target: T1, KLK14; experiment: Inhibition of fibrinogen proteolysis by KLK14 (SDS-PAGE); assay type: biochemical; conditions: up to 10,000 nM inhibitor; 7 µM fibrinogen, 90 min
Protocol: as §1

[8] = target: T7, trypsin (Bos taurus, UniProt P00760); experiment: Inhibition of fibrinogen proteolysis by trypsin (SDS-PAGE); assay type: biochemical, bovine; conditions: up to 10,000 nM inhibitor; 7 µM fibrinogen, 15 min
T7 construct: Bovine β-trypsin, bovine α-chymotrypsin and human thrombin were obtained from Sigma; purchased Sigma
T7 sequence (P00760 24-246): T2 sequence (P00760 24-246)
Protocol: as §1

[9] = Stability of SFTI variants in culture with prostate cancer cells; assay type: in vitro ADME; conditions: human; 1 µM inhibitor in serum-containing media on LNCaP, 22Rv1 and PC3 monolayers; residual KLK4 inhibition; read-out: half-life in cell culture
Protocol: (§2) The half-life in cell culture for SFTI-FCQR Asn14 and SFTI-FCQR Lys14 was determined using previously described methods. Briefly, monolayers of LNCaP, 22Rv1 and PC3 cells were established in RPMI 1640 medium supplemented with 10% foetal calf serum (HyClone), 100 U/ml penicillin (Invitrogen) and 100 µg/ml streptomycin (Invitrogen). Cells were treated ±1 µM inhibitor (SFTI-FCQR Asn14 or SFTI-FCQR Lys14) in fresh serum-containing media. Samples of media were taken at 24 hr intervals and boiled at 97°C for 15 min to denature serum protein. Residual inhibition by SFTI-FCQR variants was determined in competitive kinetic assays (as above), adding a volume of media to give 10 nM SFTI-FCQR Asn14 or 25 nM SFTI-FCQR Lys14 at 0 hr. Media without inhibitor was used to adjust for any endogenous media inhibition and data represent the mean ± SEM of three triplicate experiments.

[10] = Bioavailability / serum levels in mice by LC-MS; assay type: in vivo; conditions: 3 mg/kg
Protocol: Stability and bioavailability of SFTI-FCQR Asn14 in vivo was assessed in BALB/cFoxn1/Arc mice by oral, intravenous and intraperitoneal delivery (3 mg/kg). Inhibitor was dissolved in PBS at a concentration of 0.6 mg/ml prior to dosing. Serum levels of SFTI-FCQR Asn14 were subsequently measured by Liquid Chromatography-Mass Spectrometry (LC-MS) at Tetra Q laboratories (University of Queensland, Brisbane, Australia). This study was carried out in strict accordance to the recommendations of the Australian Code of Practice for the Care and Use of Animals for Scientific purposes (7th edition 2004) and the protocol was approved by the University of Queensland Animal Ethics Committee (ABS group) which assigned the project approval code TetraQ/479/09/Bluebox. All efforts were made to minimize suffering by experimental animals.

[11] = target: T8, KLK4 (Homo sapiens, UniProt Q9Y5K2)
Protocol: (§3) Increasing concentrations of inhibitors were incubated with various concentration of protease (final concentrations: KLK4, 1.5 nM; KLK12, 15 nM; KLK14, 2 nM; trypsin, 1 nM; matriptase, 4 nM; thrombin, 25 nM; α-chymotrypsin 25 nM) for 20 min in 200 µl assay buffer (100 mM Tris-HCl, 100 mM NaCl2, 0.005% triton-X, pH 8.0). Assays with thrombin and trypsin included 10 mM CaCl2. Enzyme activity was initiated by addition of substrate in 100 µl assay buffer (final concentration 100 µM; see Table 2). The rate of hydrolysis was measured at 405 nm over 7 min and was linear over this period. […] For SFTI-FCQR Asp14, K i was determined by inhibition at various substrate concentrations using the competitive inhibition model and non-linear regression in Prism 5 (GraphPad Software Inc). The K i for this inhibitor was also determined using the Morrison equation for tight binding inhibitors [43] (FVQR-pNA K M = 679.9±113.1 µM [16]) and non-linear regression in Prism 5. […] The k on and k off were determined from the lag phases and steady state of inhibition as previously described [44] using assay conditions as above and 500 µM substrate.

[12] = target: T8, KLK4; experiment: biochemical
Protocol: as §3

[13] = target: T8, KLK4; experiment: Inhibition of fibrinogen proteolysis by KLK4 (SDS-PAGE); assay type: biochemical; set-up: polyhistidine (C); made in house; host or cells: Sf9 insect cells; conditions: 7 µM fibrinogen, 90 min
Protocol: as §1

[14] = test system: LNCaP, 22Rv1 and PC3 cells; experiment: Stability of SFTI variants in culture with prostate cancer cells; assay type: in vitro ADME; conditions: 1 µM inhibitor in serum-containing media on prostate cancer cells; residual KLK4 inhibition
Protocol: as §2

[15] = target: T8, KLK4; experiment: in vitro; conditions: recombinant KLK4 (isolated protease), pH 8
Protocol: as §3

[16] = target: T4, Thrombin; set-up: method as in PMID 11549459; conditions: substrate N-t-Boc-LRR-AMC; cited from earlier work
[17] = test system: LNCaP, 22Rv1 and PC3 cells; set-up: method as in PMID 19549601; conditions: cited from earlier work
[18] = relative to SFTI-FCQR Asp14 (Table 2)

T8 sequence (Q9Y5K2 31-254): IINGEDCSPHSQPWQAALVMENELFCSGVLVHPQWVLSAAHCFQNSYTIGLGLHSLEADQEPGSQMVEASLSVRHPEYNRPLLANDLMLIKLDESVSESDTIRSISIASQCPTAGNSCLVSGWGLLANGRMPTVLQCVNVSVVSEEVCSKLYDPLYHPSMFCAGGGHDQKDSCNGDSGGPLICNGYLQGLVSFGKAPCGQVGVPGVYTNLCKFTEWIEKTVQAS

CC[C@H](C)[C@@H]1NC(=O)[C@@H]2CCCN2C(=O)[C@@H]2CCCN2C(=O)[C@H]([C@@H](C)CC)NC(=O)[C@H](CO)NC(=O)[C@H](CCCNC(=N)N)NC(=O)[C@H](CCC(N)=O)NC(=O)[C@@H]2CSSC[C@H](NC1=O)C(=O)N[C@@H](Cc1ccccc1)C(=O)N1CCC[C@H]1C(=O)N[C@@H](CC(N)=O)C(=O)NCC(=O)N[C@@H](Cc1ccccc1)C(=O)N2 [SFTI-FCQR Asn14] (cyclo(GFCQRSIPPICFPN); disulfide 3-11)
relative increase in KLK14 inhibition compared to SFTI-FCQR Asp14 [1, 18]: six-fold | IC50 ([1]; substrate Ac-GSLR-pNA 100 µM, KLK14 2 nM): 251 ± 21.9 nM | relative increase in trypsin inhibition compared to SFTI-FCQR Asp14 [2, 18]: two-fold | IC50 ([2]; substrate BAPNA 100 µM, trypsin 1 nM, 10 mM CaCl2): 2180 ± 145 nM | inhibition of matriptase ([3]; at 10,000 nM inhibitor): no inhibition | IC50 ([3]; substrate Bz-FVRpNA 100 µM, matriptase 4 nM): > 10000 nM | inhibition of thrombin ([4]; at 10,000 nM inhibitor): no inhibition | IC50 ([4]; substrate Bz-FVRpNA 100 µM, thrombin 25 nM, 10 mM CaCl2): > 10000 nM | inhibition of α-chymotrypsin ([5]; at 10,000 nM inhibitor): no inhibition | IC50 ([5]; substrate WpNA 100 µM, α-chymotrypsin 25 nM): > 10000 nM | inhibition of KLK12 fibrinogen proteolysis [6]: No inhibition | inhibition of KLK14 fibrinogen proteolysis [7]: No inhibition | inhibition of trypsin fibrinogen proteolysis [8]: No inhibition | half-life at 1 µM [9]: 55 to 70 h | half-life ([10]; BALB/cFoxn1/Arc, mouse, serum, IV and IP): 25 to 28 min | level at time molar at 4 h ([10]; BALB/cFoxn1/Arc, mouse, serum, IV and IP, irrespective of delivery route, read-out: residual inhibitor concentration in serum after 4 hours): 10 ± 0.8 nM | serum levels after oral delivery ([10]; oral, LC-MS): did not result in detectable levels of inhibitor in serum | calculated second order rate constant (k off/K i) ([11]; calculated from k off and K i): 8.03e+08 M⁻¹ s⁻¹ | fold improvement in KLK4 inhibition compared to SFTI-FCQR Asp14 [11, 18]: 125 fold | IC50 ([11]; substrate FVQRpNA 100 µM, KLK4 1.5 nM, 20 min preincubation (SFTI-FCQR Asn14: 0.15 nM KLK4 over 2 hr; Lys14 assayed immediately after addition)): 0.0635 ± 0.0024 nM | Ki [12]: 0.0386 ± 0.006 nM | lowest inhibitor concentration blocking KLK4 proteolysis of fibrinogen [13]: 62.5 nM

CC[C@H](C)[C@@H]1NC(=O)[C@@H]2CCCN2C(=O)[C@@H]2CCCN2C(=O)[C@H]([C@@H](C)CC)NC(=O)[C@H](CO)NC(=O)[C@H](CCCNC(=N)N)NC(=O)[C@H](CCC(N)=O)NC(=O)[C@@H]2CSSC[C@H](NC1=O)C(=O)N[C@@H](Cc1ccccc1)C(=O)N1CCC[C@H]1C(=O)N[C@@H](CCCCN)C(=O)NCC(=O)N[C@@H](Cc1ccccc1)C(=O)N2 [SFTI-FCQR Lys14] (cyclo(GFCQRSIPPICFPK); disulfide 3-11)
initial activity lost within the first 24 hr in cell culture [14]: two-thirds | half-life [15]: 56.3 ± 6.2 min | IC50 [12]: 6.07 ± 0.13 nM | Ki [12]: 3.56 ± 0.27 nM

CC[C@H](C)[C@@H]1NC(=O)[C@@H]2CCCN2C(=O)[C@@H]2CCCN2C(=O)[C@H]([C@@H](C)CC)NC(=O)[C@H](CO)NC(=O)[C@H](CCCNC(=N)N)NC(=O)[C@H](CCC(N)=O)NC(=O)[C@@H]2CSSC[C@H](NC1=O)C(=O)N[C@@H](Cc1ccccc1)C(=O)N1CCC[C@H]1C(=O)NCC(=O)NCC(=O)N[C@@H](Cc1ccccc1)C(=O)N2 [SFTI-FCQR Gly14] (cyclo(GFCQRSIPPICFPG); disulfide 3-11)
IC50 [12]: 14.7 ± 1.09 nM | Ki [12]: 10.4 ± 2.87 nM

CC[C@H](C)[C@@H]1NC(=O)[C@@H]2CCCN2C(=O)[C@@H]2CCCN2C(=O)[C@H]([C@@H](C)CC)NC(=O)[C@H](CO)NC(=O)[C@H](CCCNC(=N)N)NC(=O)[C@H](CCC(N)=O)NC(=O)[C@@H]2CSSC[C@H](NC1=O)C(=O)N[C@@H](Cc1ccccc1)C(=O)N1CCC[C@H]1C(=O)N[C@@H](CO)C(=O)NCC(=O)N[C@@H](Cc1ccccc1)C(=O)N2 [SFTI-FCQR Ser14] (cyclo(GFCQRSIPPICFPS); disulfide 3-11)
IC50 [12]: 29.2 ± 1.08 nM | Ki [12]: 21.2 ± 3.81 nM

SFTI-1: 1.4 kDa cyclic Bowman-Birk serine protease inhibitor isolated from sunflower (Helianthus annuus) seeds
Ki [16]: 5050 nM

CC[C@H](C)[C@@H]1NC(=O)[C@@H]2CCCN2C(=O)[C@@H]2CCCN2C(=O)[C@H]([C@@H](C)CC)NC(=O)[C@H](CO)NC(=O)[C@H](CCCNC(=N)N)NC(=O)[C@H](CCC(N)=O)NC(=O)[C@@H]2CSSC[C@H](NC1=O)C(=O)N[C@@H](Cc1ccccc1)C(=O)N1CCC[C@H]1C(=O)N[C@@H](C)C(=O)NCC(=O)N[C@@H](Cc1ccccc1)C(=O)N2 [SFTI-FCQR Ala14] (cyclo(GFCQRSIPPICFPA); disulfide 3-11)
IC50 [12]: 26.2 ± 0.85 nM | Ki [12]: 18.3 ± 3.36 nM

CC[C@H](C)[C@@H]1NC(=O)[C@@H]2CCCN2C(=O)[C@@H]2CCCN2C(=O)[C@H]([C@@H](C)CC)NC(=O)[C@H](CO)NC(=O)[C@H](CCCNC(=N)N)NC(=O)[C@H](CCC(N)=O)NC(=O)[C@@H]2CSSC[C@H](NC1=O)C(=O)N[C@@H](Cc1ccccc1)C(=O)N1CCC[C@H]1C(=O)N[C@@H](CC(=O)O)C(=O)NCC(=O)N[C@@H](Cc1ccccc1)C(=O)N2 [SFTI-FCQR Asp14] (cyclo(GFCQRSIPPICFPD); disulfide 3-11)
Ki ([11]; competitive inhibition model, various substrate concentrations, FVQRpNA): 3.62 ± 0.26 nM | stability in culture with prostate cancer cells [17]: highly resistant to breakdown | Ki [12]: 3.89 ± 0.4 nM | lowest inhibitor concentration blocking KLK4 proteolysis of fibrinogen [13]: 250 nM
